Source: patent EP1219631A1, “ANTIANDROGEN AGENTS” (CHUGAI SEIYAKU KABUSHIKI KAISHA, priority 1999, dated 2001)

Columns and labels:
human androgen receptor [1] = target: T1, human androgen receptor (Homo sapiens, UniProt P10275); experiment: Androgen receptor reporter gene assay, agonist action (MMTV-Luc, pSG5-hAR and Renilla Luc vectors transfected into HeLa cells, dual-luciferase); type: cell-based; details: for FI5 value: concentration showing a transcriptional activity five times that without compound, tested at 1, 10, 100, 1000 and 10000 nmol/L
T1 construct: expressed in transfected cells; host or cells: HeLa cells
T1 sequence (P10275 1-920): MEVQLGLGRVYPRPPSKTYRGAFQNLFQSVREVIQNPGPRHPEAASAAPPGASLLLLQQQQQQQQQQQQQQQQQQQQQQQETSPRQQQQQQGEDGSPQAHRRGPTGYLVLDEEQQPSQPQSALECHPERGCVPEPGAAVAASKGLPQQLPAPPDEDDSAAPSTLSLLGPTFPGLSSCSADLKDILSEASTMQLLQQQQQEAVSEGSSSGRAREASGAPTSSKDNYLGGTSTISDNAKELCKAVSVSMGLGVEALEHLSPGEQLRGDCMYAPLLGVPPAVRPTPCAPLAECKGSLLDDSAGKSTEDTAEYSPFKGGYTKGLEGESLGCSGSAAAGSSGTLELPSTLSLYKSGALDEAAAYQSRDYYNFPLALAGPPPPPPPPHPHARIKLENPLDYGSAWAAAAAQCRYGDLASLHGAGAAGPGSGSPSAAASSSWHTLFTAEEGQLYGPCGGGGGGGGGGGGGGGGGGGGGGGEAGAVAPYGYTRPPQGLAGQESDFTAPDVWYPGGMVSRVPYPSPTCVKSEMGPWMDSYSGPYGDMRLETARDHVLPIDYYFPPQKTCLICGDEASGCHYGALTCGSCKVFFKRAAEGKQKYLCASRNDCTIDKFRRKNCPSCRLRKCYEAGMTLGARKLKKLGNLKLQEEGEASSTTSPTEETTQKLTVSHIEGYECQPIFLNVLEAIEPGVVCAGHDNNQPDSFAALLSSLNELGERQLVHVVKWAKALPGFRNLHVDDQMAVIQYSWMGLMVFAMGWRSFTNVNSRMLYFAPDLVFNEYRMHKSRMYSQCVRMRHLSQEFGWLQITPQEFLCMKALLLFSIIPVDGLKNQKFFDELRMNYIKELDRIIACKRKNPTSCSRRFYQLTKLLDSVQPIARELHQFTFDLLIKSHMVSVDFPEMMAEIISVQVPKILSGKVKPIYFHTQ
Description: Speaking of the substance of the invention which acts as antagonist against but not as agonist for the androgen receptor, the expression "not acting as agonist" means that in the following androgen receptor gene assay, the transcriptional activity value of the substance at any concentration of 0.1 nmol/L - 10 µmol/L is from one to five times the transcriptional activity value for no addition of the substance which is taken as unity:
Twenty-four hours before transfection, 1.0 x 10^5 HeLa cells (purchased from Dainippon Pharmaceutical Co., Ltd.) are cultured in phenol red free Dulbecco's modified Eagle medium (DMEM) containing 5% of charcoal-treated FBS (DCC-FBS) in 12-well microplates. Five hundred nanograms/well of MMTV-Luc vector (the reporter plasmid of luciferase having mouse tumor long terminal repeats containing the androgen response element: GM-CAT vector (A.T.C.C. No. 67282) purchased from A.T.C.C. provided that the chloramphenicol acetyl transferase gene was replaced by the firefly luciferase gene), 100 ng/well of pSG5-hAR (the expression vector of the human androgen receptor which harbors the androgen receptor gene under the control of SV40 promoter) and 5 ng/well of Renilla Luc vector (a vector for internal standard incorporating the sea pansy luciferase gene) are transfected into the HeLa cells. The transfection is performed in a liquid culture of the phenol red free DMEM using […] of lipofectoamine (GibcoBRL). Nine hours after the transfection, the liquid culture is replaced by phenol red free DMEM/3% DCC-FBS containing 10 µmol/L of a compound of the invention which is represented by the general formula (I) or the substance of the invention which acts as antagonist against but not as agonist for the androgen receptor. The transcriptional activity value is measured 48 hours after the replacement of the liquid culture. Transcriptional activity is measured with a dual-luciferase reporter assay system (Promega). The transcriptional activity value is defined as the value for firefly luciferase divided by the value for sea pansy luciferase. […] 270, pp. 19998-20003, 1995.
(§1) Twenty-four hours before transfection, 1.0 x 10^5 HeLa cells were cultured in phenol red free DMEM/5% DCC-FBS on 12-well microplates. Five hundred nanograms/well of MMTV-Luc vector, 100 ng/well of pSG5-hAR and 5 ng/well of Renilla Luc vector were transfected into the HeLa cells. The transfection was performed in a liquid culture of the phenol red free DMEM using […] of lipofectoamine. […] The transcriptional activity value was measured 48 hours after the replacement of the liquid culture. Transcriptional activity was measured with a dual-luciferase reporter assay system. The transcriptional activity value was calculated as the value for firefly luciferase divided by the value for sea pansy luciferase.
The compound was added at concentrations of 1, 10, 100, 1000 and 10000 nmol/L. Agonist activity = Transcriptional activity when the compound was added/Transcriptional activity when the compound was not added [formula]

human androgen receptor [2] = target: T1, human androgen receptor; experiment: Androgen receptor reporter gene assay, antagonist action against DHT (MMTV-Luc, pSG5/hAR and Renilla Luc vectors transfected into HeLa cells, dual-luciferase); type: cell-based
Description: The expression "acting as antagonist" means that in the following androgen receptor gene assay, the transcriptional activity value of 0.1 nmol/L of dihydrotestosterone (DHT) is inhibited to 0 - 50% at any concentration of 0.1 nmol/L - 10 µmol/L:
Twenty-four hours before transfection, 1.0 x 10^5 HeLa cells are cultured in phenol red free DMEM/5% DCC-FBS on 12-well microplates. Five hundred nanograms/well of MMTV-Luc vector, 100 ng/well of pSG5/hAR and 5 ng/well of Renilla Luc vector are transfected into the HeLa cells. The transfection is performed in a liquid culture of the phenol red free DMEM using […] of lipofectoamine. Nine hours after the transfection, the liquid culture is replaced by phenol red free DMEM/3% DCC-FBS containing 0.1 nmol/L of DHT and […] of a compound of the invention which is represented by the general formula (I) or the substance of the invention which acts as antagonist against but not as agonist for the androgen receptor. The transcriptional activity value is measured 48 hours after the replacement of the liquid culture. Transcriptional activity is measured with a dual-luciferase reporter assay system. The transcriptional activity value is defined as the value for firefly luciferase divided by the value for sea pansy luciferase. […] 270, pp. 19998-20003, 1995.
as §1, with “pSG5/hAR” for “pSG5-hAR”
The compound was added at concentrations of 1, 10, 100, 1000 and 10000 nmol/L and at each of these concentrations, measurement was done in the presence of DHT (0.1 nmol/L). Antagonist activity = Transcriptional activity when the compound was added/Transcriptional activity when the compound was not added x 100 [formula]

[3] = prostate cancer patients under flutamide treatment; cited from earlier work
androgen receptor = androgen receptor (Homo sapiens, UniProt P10275); details: cited from earlier work
castrated rats = details: two-week continuous administration; cited from earlier work

## CC12CCC3C(C(CCCCCCCC(=O)NCCc4ccccc4)CC4CC(=O)CCC43C)C1CCC2O (stereo not shown) [Example 74]
Human androgen receptor [1]
  FI5 value: ND (even when the compound was added at a concentration of 10000 nM, the transcriptional activity of the compound-treated group was less than 5 times the transcriptional activity of the control group, making it impossible to compute the FI5 value)
Human androgen receptor [2]
  IC50: 2.04 µM

## CC(C)(O)C(=O)Nc1ccc([N+](=O)[O-])c(C(F)(F)F)c1 [Hydroxyflutamide, hydroxyflutamide]
Human androgen receptor [1]; at a concentration of 10 µmol/L
  acting as agonist: act as agonist
Human androgen receptor [1]
  FI5 value: 1000 nM
Human androgen receptor [1]; summary of the results of Example 180
  agonist action for the androgen receptor mediated transcriptional activity: exhibit agonist action
[3]
  Plasma levels: several
Human androgen receptor [2]; text of Example 2, with 0.1 nmol/L of DHT, HeLa cells, 48 hours
  transcriptional activity value of DHT: less than 50%
Androgen receptor
  transcriptional activity of the androgen receptor: elevated

## CC(=O)O[C@]1(C(C)=O)CC[C@H]2[C@@H]3C=C(Cl)C4=CC(=O)CC[C@]4(C)[C@H]3CC[C@@]21C [chlormadinone acetate]
Castrated rats
  prostate weight: increased

## CC(=O)O[C@]1(C(C)=O)CC[C@H]2[C@@H]3C=C(Cl)C4=CC(=O)[C@@H]5C[C@@H]5[C@]4(C)[C@H]3CC[C@@]21C [cyproterone acetate]
Castrated rats
  prostate weight: increased
